Assay results reported in patent US6528501B1, “22s-hydroxycholesta-8, 14-diene derivatives with meiosis regulating activity” (Akzo Nobel N.V., priority 1998, dated 2003).

Experiments:
meiosis = conditions: disclosed in WO 98/28323; cited from earlier work
[1] = test system: cultured cumulus enclosed and naked mouse oocytes; conditions: cited from earlier work
denuded oocytes (DO) = assay: Oocyte assay, denuded oocytes (DO): overcoming hypoxanthine maintained meiotic arrest; type: cell-based, mice (B6D2-F1, strain C57BL×DBA); conditions: 22 hours culture, hypoxanthine 4 mM, control value in parentheses
Method: (§1) The meiosis activating activity of the […]-hydroxycholesta-8,14-diene derivatives of the invention is measured in an in vitro oocyte assay as the ability to overcome the hypoxanthine maintained meiotic arrest in denuded oocytes (DO) or cumulus enclosed oocytes (CEO). Oocytes arrested in meiosis contain diffused chromosomes which are surrounded by an intact nuclear envelope known as the germinal vesicle (GV). Upon reinitiation of meiosis by the […] gonadotropin surge, the chromosomes recondense and the GV breaks down (GVBD). In vivo, the oocyte is exposed to hypoxanthine (HX), which maintains the oocyte arrested in the meiotic prophase. This meiotic arrest can be mimicked in vitro by addition of hypoxanthine to the culture medium. The agonistic activity of the meiosis activating substances is measured as the ability to overcome the hypoxanthine maintained meiotic arrest in denuded oocytes (DO) or cumulus enclosed oocytes (CEO), i.e. as the ability to induce meiotic resumption in vitro. Ovaries are obtained from immature female mice (B6D2-F1, strain C57BL×DBA). At the age of 19, 20 or 21 days the mice are injected subcutaneously with a single dose of 20 IU follicle stimulating hormone (Humegon, Organon, The Netherlands) in saline. Forty-eight hours after follicle stimulating hormone injection mice are killed by cervical dislocation. The ovaries are removed, freed of extraneous tissue and placed in a multidish containing 0.5 ml preparation medium at 37° C. […] At t=0 the number of oocytes with intact germinal vesicles (GV) or germinal vesicle break-down (GVBD) is counted under an inverted microscope with differential interference contrast equipment. […] At the end of the culture period the number of oocytes with GV or GVBD per group is counted. For statistical analysis the percentage germinal vesicle breakdown is calculated for each group in one block. These percentages are subjected to arcsin transformation, and differences between control and test compounds are analyzed by an ANOVA test for a randomized block design.

[2] = test system: cumulus enclosed oocytes (CEO); assay: Oocyte assay, cumulus enclosed oocytes (CEO): overcoming hypoxanthine maintained meiotic arrest; type: cell-based, mice (B6D2-F1, strain C57BL×DBA); conditions: 22 hours culture, hypoxanthine 4 mM, control value in parentheses
Method: as §1

Structure (SMILES)	ability to activate the resumption of meiosis [1]	% GVBD DO assay exp. (denuded oocytes (DO); 5 μM)	% GVBD CEO assay exp. ([2]; 5 μM)	melting point [°C]	also measured
CC(C)CC[C@@H](O)[C@@H](C)[C@H]1CC[C@H]2[C@@H]3CC=C4C[C@@H](O)CC[C@]4(C)[C@H]3CC[C@]12C [22R-hydroxycholesterol]	–	–	–	–	agonist/antagonist of meiosis activating substance (meiosis): antagonist
CC(C)=CCC[C@@H](C)[C@H]1CC[C@H]2C3=C(CC[C@]12C)[C@@]1(C)CC[C@H](O)C(C)(C)[C@@H]1CC3 [(3β,5α,20R)-4,4-dimethylcholesta-8,24-dien-3-ol]	able to activate the resumption of meiosis	–	–	–	–
CC(C)CC[C@H](O)[C@@H](C)[C@H]1CC=C2C3=C(CC[C@@]21C)[C@@]1(C)CC[C@H](O)C(C)(C)[C@@H]1CC3 [Example 1, (3β,5α,20S ,22S)-4,4-Dimethylcholesta-8,14-diene-3,22-diol]	–	85(0) %	6(3) %	142 to 143	–
CC(C)=CC[C@H](O)[C@@H](C)[C@H]1CC=C2C3=C(CC[C@@]21C)[C@@]1(C)CC[C@H](O)C(C)(C)[C@@H]1CC3 [Example 2, (3β,5α,20S,22S )-4,4-Dimethylcholesta-8,14,24-triene-3,22-diol]	–	97(2) %	73(2) %	106 to 108	–
CC(C)=CCC[C@@H](C)[C@H]1CC=C2C3=C(CC[C@@]21C)[C@@]1(C)CC[C@H](O)C(C)(C)[C@@H]1CC3 [FF-Mas, (3β,5α,20R)-4,4-dimethylcholesta-8,14,24-trien-3-ol]	able to activate the resumption of meiosis	–	–	–	% GVBD DO assay exp. (denuded oocytes (DO); 10 μM): 84(7) %; % GVBD CEO assay exp. ([2]; 10 μM): 0(0) %
